# Legend:
# Assay type in all cases: in vivo, mouse
# GgFF mice [1] = test: Rotarod dwelling time (30 rpm, 40 rpm) of aged mice deficient in prothymosin α in striatum
# GgFF mice [2] = test: Clasping reflex score of aged mice deficient in prothymosin α in striatum
# GgFF mice [3] = test: Survival ratio after 15-min transient middle cerebral artery occlusion (tMCAO); settings: 8- to 16-week-old GgFF mice, administration group
# GgFF mice [4] = test: Rotarod dwelling time (motility function) after 15-min tMCAO; settings: 8- to 16-week-old GgFF mice, selegiline 10 mg/kg intraperitoneally after 15-min tMCAO, 6 rpm and 12 rpm
# GgFF mice [5] = test: Clinical score (motility dysfunction) after 15-min tMCAO; settings: 8- to 16-week-old GgFF mice, selegiline 10 mg/kg intraperitoneally after 15-min tMCAO
structure (smiles),measurement,setting,value
"Cl.Oc1cc2c(cc1O)C(c1ccccc1)CNCC2 (racemic) [SKF38393, (±)-1-phenyl-2,3,4,5-tetrahydro-1H-3-benzazepine-7,8-diol HCl]",motility dysfunction in the Rotarod test,"GgFF mice [1]; 20- to 30-week-old GgFF mice, 5 hr after intraperitoneal administration of 30 mg/kg, 30 rpm, vs vehicle",significantly improved
CC12CC3CC(C)(C1)CC(N)(C3)C2 [memantine],"symptom (clasping scores), chronic administration",GgFF mice [2]; memantine 10 mg/kg intraperitoneally every day from Day 1 to Day 7,remarkable recovery
same,"symptom (motility function by Rotarod), chronic administration","GgFF mice [1]; aged GgFF mice, memantine 10 mg/kg intraperitoneally every day from Day 1 to Day 7, 30 rpm and 40 rpm",remarkable recovery
same,"motility function, acute (within 24 hr)","GgFF mice [1]; aged GgFF mice, memantine 10 mg/kg intraperitoneally, 24 hr after the administration",most recovered
CCCN[C@H]1CCc2nc(N)sc2C1 [pramipexole],survival ratio,GgFF mice [3]; pramipexole 0.01 mg/kg intraperitoneally after 15-min tMCAO,75%
C#CCN(C)[C@H](C)Cc1ccccc1 [selegiline],"clasping scores vs before administration, acute (within 24 hr)",GgFF mice [2]; selegiline 10 mg/kg intraperitoneally,tended to improve
same,"dwelling time on the Rotarod vs before administration, acute (within 24 hr)","GgFF mice [1]; aged GgFF mice, selegiline 10 mg/kg intraperitoneally, 30 rpm and 40 rpm",tended to be long
same,"motility function (dwelling time on Rotarod, Latency to fall) vs non-administration group",GgFF mice [4],improved motility function
same,survival ratio,GgFF mice [3]; selegiline 10 mg/kg intraperitoneally after 15-min tMCAO,markedly-improved
same,motility dysfunction (Clinical score),GgFF mice [5],remarkably improved

# Reference: patent publication US9259487B2, “Transgenic non-human animal model of neurodegenerative disease” (Nagasaki University, priority 2011, dated 2016)
